What was measured:
Assay type in all cases: biochemical
[1] = target: SIK2 (Homo sapiens, UniProt Q9H0K1); assay: Enzymatic activity assay SIK2, RapidFire mass spectrometry (phosphorylation of CHK-peptide); conditions: RapidFire MS, inhibition of SIK2; read-out: SIK2 RF IC50
Description: (§1) Assay description SIK1-3, RapidFire:
In the presence of SIK2 (resp. SIK1 or SIK3) and ATP the CHK-peptide ([…] with C-terminal arginine amide modification) were phosphorylated at one of the four feasible serine's. […] 5 μl SIK2 (0.5 nM) or 7 μl SIK3 (1.5 nM) in assay-buffer (12.5 mM HEPES (pH 7.0), 10 mM magnesium acetate, 0.005% BSA). 10 μM CHK-peptide solution and 5 μl 100 μM ATP for SIK1 & SIK2 resp. 3 μl for SIK3 in assay-buffer were added and incubated ambient for 45 min. 40 μl 0.125% formic acid in water were added to quench the reaction. RapidFire (RF) Mass Spectrometry was utilized for data generation as described below. The multiple charged species (3-5 charges) for the phosphorylated and non-phosphorylated form measured by MRM (Multiple Reaction Monitoring; API5000 or 6500+) or EIC (Extracted Ion Current; QToF) were summed up and the ratio calculated (sum phosphorylated species/sum all species) for data evaluation. Normalization was performed by Genedata software based on the non-inhibition control DMSO and the commercially available SIK inhibitor @ 1 μM YKL-05-099 (CAS number 1936529-65-5).
(§2) Samples were aspirated by vacuum for max. 600 ms and loaded to C4-cartridge (Agilent; #G9203A) for 3000 ms@1.5 ml/min with 0.1% formic acid in water. Afterwards samples were transferred to the APT5000 (APT6500+) or QToF mass spectrometer for 4000 ms@1.25 ml/min with 90% acetonitrile; 10% water; 0.007% TFA; 0.093 formic acid. The cartridge was reconditioned for additional 500 ms with 0.1% formic acid in water
(§3) All MS analyses using the following MS-setup in MRM mode: Electrospray positive; Ion Spray Voltage: 4000V; Temperature: 550° C.; Collision Gas: 5; Curtain Gas: 15; Gas1: 40; Gas 2: 42; EP: 10
(§4) MS-Setup Agilent QToF 6545
(§5) All MS analyses using the following MS-setup in Mode MS: Dual AJS Electrospray positive; VCap: 3000V; Drying & Sheath gas: 340° C.@81/min; Nebulizer: 60 psig; Nozzle Voltage: 2000V; Fragmentor: 130V; Skimmer: 35V; Oct1 RF Vpp: 700V; Ref masses on@5spectra/s

[2] = target: SIK3 (Homo sapiens, UniProt Q9Y2K2); assay: Enzymatic activity assay SIK3, RapidFire mass spectrometry (phosphorylation of CHK-peptide); conditions: RapidFire MS, inhibition of SIK3; read-out: SIK3 RF IC50
Description: as §1
(§6) In the presence of SIK2 (resp. SIK1 or SIK3) and ATP the CHK-peptide ([…] with C-terminal arginine amide modification) were phosphorylated at one of the four feasible serine's. Only one phosphorylation is observed under the assay conditions. 60 nl of each compound dilution series (12 point; dilution factor 3, generally 30 μM to 170 pM) in DMSO were transferred by acoustic dispensing to the assay plate and 30 min pre-incubated (ambient temperature) after the addition of 5 μl SIK1 (5 nM) resp. 5 μl SIK2 (0.5 nM) or 7 μl SIK3 (1.5 nM) in assay-buffer (12.5 mM HEPES (pH 7.0), 10 mM magnesium acetate, 0.005% BSA). 10 μM CHK-peptide solution and 5 μl 100 μM ATP for SIK1 & SIK2 resp. 3 μl for SIK3 in assay-buffer were added and incubated ambient for 45 min. 40 μl 0.125% formic acid in water were added to quench the reaction. RapidFire (RF) Mass Spectrometry was utilized for data generation as described below. The multiple charged species (3-5 charges) for the phosphorylated and non-phosphorylated form measured by MRM (Multiple Reaction Monitoring; API5000 or 6500+) or EIC (Extracted Ion Current; QToF) were summed up and the ratio calculated (sum phosphorylated species/sum all species) for data evaluation. Normalization was performed by Genedata software based on the non-inhibition control DMSO and the commercially available SIK inhibitor @ 1 μM YKL-05-099 (CAS number 1936529-65-5). The results of the assay are expressed in half-maximal inhibitory concentrations (IC50s) and are summarized below in Table 1.
as §2, §3, §4, §5

[3] = target: SIK1 (Homo sapiens, UniProt P57059); assay: Enzymatic activity assay SIK1, RapidFire mass spectrometry (phosphorylation of CHK-peptide); conditions: RapidFire MS, inhibition of SIK1; read-out: SIK1 RF IC50
Description: as §1, §6, §2, §3, §4, §5

Chain of SIK2 (Q9H0K1 whole entry): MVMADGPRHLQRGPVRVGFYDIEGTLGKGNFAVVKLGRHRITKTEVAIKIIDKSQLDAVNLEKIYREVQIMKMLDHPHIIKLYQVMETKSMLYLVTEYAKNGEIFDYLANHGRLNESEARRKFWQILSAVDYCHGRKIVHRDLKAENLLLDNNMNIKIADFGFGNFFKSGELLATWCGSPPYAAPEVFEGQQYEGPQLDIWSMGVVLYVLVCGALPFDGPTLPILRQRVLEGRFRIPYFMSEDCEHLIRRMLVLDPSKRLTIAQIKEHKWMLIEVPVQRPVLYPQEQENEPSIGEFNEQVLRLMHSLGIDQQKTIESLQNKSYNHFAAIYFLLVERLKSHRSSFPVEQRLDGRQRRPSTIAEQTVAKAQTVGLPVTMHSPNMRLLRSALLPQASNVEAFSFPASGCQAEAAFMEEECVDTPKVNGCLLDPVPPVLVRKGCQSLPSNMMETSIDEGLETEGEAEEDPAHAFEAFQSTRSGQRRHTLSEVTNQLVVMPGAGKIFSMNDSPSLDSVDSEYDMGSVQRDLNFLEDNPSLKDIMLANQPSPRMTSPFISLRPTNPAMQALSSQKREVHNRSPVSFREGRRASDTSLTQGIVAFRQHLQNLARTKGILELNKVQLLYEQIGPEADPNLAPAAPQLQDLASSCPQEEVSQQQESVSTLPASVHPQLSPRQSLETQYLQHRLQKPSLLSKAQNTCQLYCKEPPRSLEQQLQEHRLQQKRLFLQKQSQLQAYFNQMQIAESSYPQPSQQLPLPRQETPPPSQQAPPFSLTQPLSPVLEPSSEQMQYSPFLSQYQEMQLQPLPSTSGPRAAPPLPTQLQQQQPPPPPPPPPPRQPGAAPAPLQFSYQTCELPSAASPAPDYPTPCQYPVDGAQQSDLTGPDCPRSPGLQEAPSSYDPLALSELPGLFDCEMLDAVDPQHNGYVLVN
Chain of SIK1 (P57059 whole entry): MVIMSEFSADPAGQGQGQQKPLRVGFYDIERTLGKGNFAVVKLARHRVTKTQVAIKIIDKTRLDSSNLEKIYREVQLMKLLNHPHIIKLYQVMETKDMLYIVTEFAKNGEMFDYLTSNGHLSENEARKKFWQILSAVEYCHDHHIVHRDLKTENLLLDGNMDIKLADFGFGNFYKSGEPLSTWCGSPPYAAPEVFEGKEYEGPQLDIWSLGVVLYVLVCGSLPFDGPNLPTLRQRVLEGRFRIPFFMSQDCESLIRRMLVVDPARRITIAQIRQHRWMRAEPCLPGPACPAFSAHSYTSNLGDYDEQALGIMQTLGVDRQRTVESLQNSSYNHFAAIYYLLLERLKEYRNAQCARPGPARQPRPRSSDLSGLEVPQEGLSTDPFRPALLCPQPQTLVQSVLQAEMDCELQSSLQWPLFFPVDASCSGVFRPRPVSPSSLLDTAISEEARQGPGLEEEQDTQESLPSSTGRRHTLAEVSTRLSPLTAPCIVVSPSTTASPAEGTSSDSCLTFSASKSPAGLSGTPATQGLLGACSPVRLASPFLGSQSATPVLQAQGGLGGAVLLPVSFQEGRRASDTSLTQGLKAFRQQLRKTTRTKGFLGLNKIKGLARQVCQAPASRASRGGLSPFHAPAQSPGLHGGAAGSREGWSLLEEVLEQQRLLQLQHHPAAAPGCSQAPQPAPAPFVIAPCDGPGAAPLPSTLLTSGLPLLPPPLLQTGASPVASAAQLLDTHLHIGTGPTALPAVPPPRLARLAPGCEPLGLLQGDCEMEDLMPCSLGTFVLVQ
Chain of SIK3 (Q9Y2K2 whole entry): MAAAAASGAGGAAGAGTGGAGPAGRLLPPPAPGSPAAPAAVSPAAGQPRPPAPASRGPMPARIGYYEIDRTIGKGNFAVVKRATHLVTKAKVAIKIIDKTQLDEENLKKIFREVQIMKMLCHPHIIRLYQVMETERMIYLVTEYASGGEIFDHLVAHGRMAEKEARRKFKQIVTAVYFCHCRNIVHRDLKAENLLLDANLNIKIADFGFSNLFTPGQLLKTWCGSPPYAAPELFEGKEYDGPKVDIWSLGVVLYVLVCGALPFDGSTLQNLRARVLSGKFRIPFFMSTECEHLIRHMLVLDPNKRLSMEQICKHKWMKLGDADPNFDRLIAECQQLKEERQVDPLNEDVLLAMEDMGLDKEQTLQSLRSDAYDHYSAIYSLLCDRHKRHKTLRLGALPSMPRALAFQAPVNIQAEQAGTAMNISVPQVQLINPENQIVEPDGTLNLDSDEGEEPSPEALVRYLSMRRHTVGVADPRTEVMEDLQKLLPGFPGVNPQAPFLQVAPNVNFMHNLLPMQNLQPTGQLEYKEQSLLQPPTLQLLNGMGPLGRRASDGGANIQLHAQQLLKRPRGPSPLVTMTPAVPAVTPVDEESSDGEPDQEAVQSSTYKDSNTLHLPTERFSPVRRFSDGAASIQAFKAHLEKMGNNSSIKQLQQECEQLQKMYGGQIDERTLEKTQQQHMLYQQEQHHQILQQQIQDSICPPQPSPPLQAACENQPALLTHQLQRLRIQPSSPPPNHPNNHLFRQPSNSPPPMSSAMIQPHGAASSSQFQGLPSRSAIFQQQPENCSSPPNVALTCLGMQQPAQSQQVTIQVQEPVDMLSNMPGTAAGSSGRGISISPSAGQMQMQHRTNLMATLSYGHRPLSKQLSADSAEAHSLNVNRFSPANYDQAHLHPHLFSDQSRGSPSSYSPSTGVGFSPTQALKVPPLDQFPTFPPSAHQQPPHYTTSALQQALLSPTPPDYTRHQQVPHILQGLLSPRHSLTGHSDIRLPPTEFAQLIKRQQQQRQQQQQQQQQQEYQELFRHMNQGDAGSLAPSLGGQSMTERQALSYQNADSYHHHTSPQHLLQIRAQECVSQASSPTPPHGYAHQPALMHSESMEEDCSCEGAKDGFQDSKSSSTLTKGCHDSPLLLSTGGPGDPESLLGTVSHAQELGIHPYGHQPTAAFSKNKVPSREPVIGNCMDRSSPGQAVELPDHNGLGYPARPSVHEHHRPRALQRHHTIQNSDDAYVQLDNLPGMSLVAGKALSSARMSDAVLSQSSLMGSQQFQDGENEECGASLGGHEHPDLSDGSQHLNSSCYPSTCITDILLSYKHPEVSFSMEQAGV

| IC50 [1] [nM] | IC50 [2] [nM] | IC50 [3] [nM] | SMILES |
| --- | --- | --- | --- |
| 2 | 4.7 | 249 | COC(C)Cn1cc(-c2nc(-n3cnc4cc(Nc5ccc(C)nn5)ccc43)ccc2C(C)O)c(C)n1 (stereo not drawn) [Example 278, 1-[2-[1-(2-methoxypropyl)-3-methyl-pyrazol-4-yl]-6-[5-[(6-methylpyridazin-3-yl)amino]benzimidazol-1-yl]-3-pyridyl]ethanol] |
| 13.4 | 144 | 47 | Cc1ccc(Nc2cc3c(cc2CC2COC2)ncn3-c2ccc(C(C)O)c(-n3nc(OC(F)F)cc3C)n2)nn1 (stereo not drawn) [Example 406, 1-[2-[3-(difluoromethoxy)-5-methyl-pyrazol-1-yl]-6-[6-[(6-methylpyridazin-3-yl)amino]-5-(oxetan-3-ylmethyl)benzimidazol-1-yl]-3-pyridyl]ethanol] |
| 7.3 | 2.1 | 895 | CCn1ncc(-c2nc(-n3cnc4cc(Nc5ccc(C)nn5)ccc43)ccc2C(C)O)c1C (stereo not drawn) [Example 271, 1-[2-(1-Ethyl-5-methyl-pyrazol-4-yl)-6-[5-[(6-methylpyridazin-3-yl)amino]benzimidazol-1-yl]-3-pyridyl]ethanol; formic acid] |
| 2.3 | 1.8 | 82 | COC(=N)c1cc(C)n(-c2nc(-n3cnc4cc(Nc5ccc(C)nn5)ccc43)ccc2[C@H](C)O)n1 [Example 276, 1-[3-[(1S)-1-hydroxyethyl]-6-[5-[(6-methylpyridazin-3-yl)amino]benzimidazol-1-yl]-2-pyridyl]-5-methyl-pyrazole-3-carboximidic acid methyl ester] |
| 29.7 | 301 | 32 | Cc1ccc(-c2ccc3ncn(-c4ccc(C(C)O)c(-n5nc(C#N)cc5C)n4)c3c2)nn1 (stereo not drawn) [Example 339, 1-[3-(1-hydroxyethyl)-6-[6-(6-methylpyridazin-3-yl)benzimidazol-1-yl]-2-pyridyl]-5-methyl-pyrazole-3-carbonitrile] |
| 0.3 | 3 | 2 | Cc1ccc(Nc2cc3c(cc2OCCN2CCOCC2)ncn3-c2ccc(C(C)O)c(-n3nc(C#N)cc3C)n2)cn1 (stereo not drawn) [Example 294, 1-[3-(1-hydroxyethyl)-6-[6-[(6-methyl-3-pyridyl)amino]-5-(2-morpholinoethoxy)benzimidazol-1-yl]-2-pyridyl]-5-methyl-pyrazole-3-carbonitrile] |
| 21.4 | 3.4 | 1120 | Cc1ccc(Nc2ccc3c(c2)ncn3-c2ccc(C(C)O)c(N3CC(C(F)F)C4(CC4)C3)n2)nn1 (stereo not drawn) [Example 325, 1-[2-[7-(difluoromethyl)-5-azaspiro[2.4]heptan-5-yl]-6-[5-[(6-methylpyridazin-3-yl)amino]benzimidazol-1-yl]-3-pyridyl]ethanol] |
| 1.8 | 0.7 | 242 | Cc1ccc(Nc2ccc3c(c2)ncn3-c2ccc(C(C)O)c(-n3nc(C(F)F)cc3C(F)F)n2)nn1 (stereo not drawn) [Example 248, 1-[2-[3,5-Bis(difluoromethyl)pyrazol-1-yl]-6-[5-[(6-methylpyridazin-3-yl)amino]benzimidazol-1-yl]-3-pyridyl]ethanol] |
| 2.6 | 1.5 | 851 | CCn1cc(-c2nc(-n3cnc4cc(Nc5ccc(C)nn5)ccc43)ccc2C(C)O)c(C)n1 (stereo not drawn) [Example 264, 1-[2-(1-Ethyl-3-methyl-pyrazol-4-yl)-6-[5-[(6-methylpyridazin-3-yl)amino]benzimidazol-1-yl]-3-pyridyl]ethanol; formic acid] |
| 0.4 | 0.7 | 11 | Cc1ccc(Nc2cc3ncn(-c4ccc(C(C)O)c(-n5nc(C#N)cc5C)n4)c3cc2OC(F)F)nn1 (stereo not drawn) [Example 388, 1-[6-[6-(difluoromethoxy)-5-[(6-methylpyridazin-3-yl)amino]benzimidazol-1-yl]-3-(1-hydroxyethyl)-2-pyridyl]-5-methyl-pyrazole-3-carbonitrile] |
| 0.8 | 0.4 | 109 | Cc1ccc(Nc2ccc3c(c2)ncn3-c2ccc([C@H](C)O)c(-n3nc(C(F)F)cc3C(F)F)n2)nn1 [Example 287, (1S)-1-[2-[3,5-bis(difluoromethyl)pyrazol-1-yl]-6-[5-[(6-methylpyridazin-3-yl)amino]benzimidazol-1-yl]-3-pyridyl]ethanol] |
| 38.8 | 174 | 51 | COc1cc2ncn(-c3ccc(C(C)O)c(-n4nc(C#N)cc4C)n3)c2cc1Nc1ccc(C)nn1 (stereo not drawn) [Example 140, 1-[3-(1-Hydroxyethyl)-6-[5-methoxy-6-[(6-methylpyridazin-3-yl)amino]benzimidazol-1-yl]-2-pyridyl]-5-methyl-pyrazole-3-carbonitrile] |
| 89.5 | 155 | 193 | Cc1ccc(Nc2ccc3ncn(-c4ccc(C(C)O)c(-n5nc(C(F)F)cc5C)n4)c3c2)nn1 (stereo not drawn) [Example 128, 1-[2-[3-(Difluoromethyl)-5-methyl-pyrazol-1-yl]-6-[6-[(6-methylpyridazin-3-yl)amino]benzimidazol-1-yl]-3-pyridyl]ethanol] |
| 3.9 | 1.2 | 472 | Cc1ccc(Nc2ccc3c(c2)ncn3-c2ccc(C(C)O)c(-n3nc(C(F)F)cc3C)n2)nn1 (stereo not drawn) [Example 129, 1-[2-[3-(Difluoromethyl)-5-methyl-pyrazol-1-yl]-6-[5-[(6-methylpyridazin-3-yl)amino]benzimidazol-1-yl]-3-pyridyl]ethanol; formic acid] |
| 1.4 | 2.2 | 5 | Cc1cc(C#N)nn1-c1nc(-n2cnc3cc(Nc4cnn(C5COC5)c4)ccc32)ccc1C(C)O (stereo not drawn) [Example 71, 1-[3-(1-Hydroxyethyl)-6-[5-[[1-(oxetan-3-yl)pyrazol-4-yl]amino]benzimidazol-1-yl]-2-pyridyl]-5-methyl-pyrazole-3-carbonitrile] |
| 198 | 53.9 | 3490 | Cc1ccc(Nc2ccc3c(c2)ncn3-c2ccc(C(C)O)c(N(C)CC3(C#N)CC3)n2)nn1 (stereo not drawn) [Example 173, 1-[[[3-(1-Hydroxyethyl)-6-[5-[(6-methylpyridazin-3-yl)amino]benzimidazol-1-yl]-2-pyridyl]-methyl-amino]methyl]cyclopropanecarbonitrile] |
| 3.2 | 1.9 | 68 | COCCOc1ccc(Nc2ccc3c(c2)ncn3-c2ccc(C(C)O)c(-n3nc(C#N)cc3C)n2)nn1 (stereo not drawn) [Example 193, 1-[3-(1-Hydroxyethyl)-6-[5-[[6-(2-methoxyethoxy)pyridazin-3-yl]amino]benzimidazol-1-yl]-2-pyridyl]-5-methyl-pyrazole-3-carbonitrile] |
| 35.4 | 9.3 | 3390 | Cc1ccc(Oc2ccc3c(c2)ncn3-c2ccc(C(C)O)c(-c3cn(CC(F)(F)F)nc3C)n2)nn1 (stereo not drawn) [Example 351, 1-[6-[5-(6-methylpyridazin-3-yl)oxybenzimidazol-1-yl]-2-[3-methyl-1-(2,2,2-trifluoroethyl)pyrazol-4-yl]-3-pyridyl]ethanol] |

— patent US20240383875A1, “Benzimidazole Pyridine Derivatives” (Hoffmann-La Roche Inc., priority 2022, published 2024)
